From patent publication US20040072368A1, “Lipoprotein receptor” (priority 2002, published 2004)

Tests used:
[1] = test system: HepG2 cells; assay: TG-HDL2 internalisation assay; format: cell-based, human; details: for effect on internalisation of 125I-TG-HDL2: 75 μg/ml 125I-TG-HDL2, 10 min at 37° C., 10 μg/ml free-apoA-I, 100 nM ADP, 100 nM ATP, 0.2 U/ml apyrase, 100 nM EGF
Protocol: (§1) Panel 1, 2 and 3. TG-HDL2 and LDL internalization by HepG2 cells. Cells are incubated for 10 min at 37° C. with 75 μg/ml of ^125I-TG-HDL2 (panels 1 and 3), TG-HDL2 labelled with ^3H-cholesteryl ester (panel 1 “chol”) or ^1251-LDL (panel 2). Alternatively, 10 μg/ml free-apoA-I (A, G), 100 nM ADP (B, H), both free-apoA-I and ADP at the same concentrations as above (C), 100 nM ATP (D), 0.2 U/ml apyrase (E), 100 nM EGF (F), or increasing concentrations of 2MeS-ADP (▪) and ATPγS (□) (panel 3) are added to the incubation medium. Results are expressed as the percentage of stimulation related to the value of internalisation obtained without addition of any compound (corresponding to a value of 400 ng TG-HDL2/mg of cell protein). The same experiments are performed on IHH cells with similar results (data not shown).
HepG2 cells are incubated for 10 min at 37° C. in DMEM pH 6.6 with 75 μg/ml of ^125I-TGHDL 2 and in the presence of increasing concentrations of IF, without (panel A) or with (panel B) free-apoA-I (10 μg/ml). Results are expressed as the percentage of stimulation as referred to the value of internalisation obtained without addition of any compound (corresponding to a value of 400 ng TG-HDL2/mg of cell protein).
Cells are washed three times and pre-incubated for 30 min at 37° C. in serum free DMEM. ^125I triglyceride rich-HDL2 (75 μg/ml) are added on the cells and incubated at 37° C. for various time. Depending on the experiment, free apolipoprotein A-I (10 μg/ml) or other compounds, are added to the incubation medium. At each incubation time, cells are washed with cold DMEM and the release of radioactive ligands associated to the cell surface is performed at 4° C., for 90 min in DMEM. The radioactivity internalised into the cells and the protein content is determined as in the competition assays. Non-specific internalisation is analysed in the presence of an excess of 600 μg/ml of HDL3. Results are expressed as the percentage of stimulation related to the value of internalisation obtained without addition of any compound. The same method is used for the measurement of LDL internalisation.

[2] = test system: EGF receptor; assay: EGF receptor internalisation by flow cytometry; format: cell-based, human; details: HepG2, 10 min pre-incubation, 10 μg/ml free-apoA-I or 100 nM ADP
Protocol: Panel 4. Internalisation of EGF receptor by HepG2 cells. Cells are pre-incubated for 10 min in serum-free medium with (J) or without (K) […] EGF, or with 10 μg/ml free-apoA-I (L), 100 nM ADP (M). The amount of EGF receptor is measured by Flow Cytometry using anti-EGF receptor antibody. As a control experiment for the efficacy of EGF receptor antibody, isotypic IgG are used (I). Results are expressed as the mean relative cell fluorescence and receptor internalisation is related to lower fluorescence.
For analysis of the cell surface EGF receptor, HepG2 cells are preincubated in medium with or without 20 nM EGF for 10 min at 37° C. For flow cytometry analysis, HepG2 and CHO cells are detached by incubation with Ca2+, Mg2+free PBS containing 2 mM EDTA, pH 7.4, fixed in 3% paraformaldehyde and pelleted in a microfuge. Cells are incubated at 20° C. for 1 h in PBS, pH 7.4 containing 1% BSA with either mouse monoclonal antibodies against the human β-subunit of ATP synthase, the human cytochrome oxidase subunit I, the human EGF receptor or against isotypic control IgG. Cells are washed in PBS/BSA 1% and incubated at 20° C. for 30 min with goat […] IgG conjugated to fluorescein isothiocyanate. After a final wash, cells are pelleted and resuspended in PBS/BSA 1% at a density of 1×10^6 cells/ml. The mean relative fluorescence after excitation at a wavelength of 488 nm is determined for each sample on a Coulter XL 4C flow cytometer and analysed with CELLQUEST software (Becton-Dickenson).

[3] = test system: HepG2 cells; assay: LDL internalisation assay; format: cell-based, human; details: 10 μg/ml free-apoA-I or 100 nM ADP, 10 min at 37° C.
Protocol: as §1
Cells are washed three times and pre-incubated for 30 min at 37° C. in serum free DMEM. ^125I triglyceride rich-HDL2 (75 μg/ml) are added on the cells and incubated at 37° C. for various time. […] The radioactivity internalised into the cells and the protein content is determined as in the competition assays. Non-specific internalisation is analysed in the presence of an excess of 600 μg/ml of HDL3. Results are expressed as the percentage of stimulation related to the value of internalisation obtained without addition of any compound. […]

[4] = test system: HepG2 cells and IHH; assay: Cholesterol efflux; format: cell-based, human; details: range of 1 nM to 10 μM
[5] = test system: rat liver; assay: TG-HDL2 internalisation by perfused rat liver (in situ); format: in vivo
Protocol: The liver from male Whistar rats (7-8 weeks old) were perfused in situ during 45 minutes at 37° C. in Ringer medium (pH 6.8) with 35 μg/ml of 1251-TG-HDL2 with or without 1 μM IF1. Livers were then extensively washed at 4° C. and radioactivity counted. n=7 per group. Values represent means±SEM, with p<0.02 (unpaired t-test). Control fluorescence-assisted flow cytometry experiments have shown the presence of both the Band a-chain ATP synthase at the cell surface of isolated rat hepatocytes (not shown).

[6] = target: T1, cell surface ATP synthase (Homo sapiens, UniProt P06576); assay: Cell surface ADP generation assay (ATP hydrolysis), HPLC/TLC; format: cell-based; details: HepG2
T1 construct: endogenous in cells; host or cells: HepG2
Protocol: ^32Pi and ADP (panels A and B) or [α-32P] ATP (panels C, D, E and F) are added to the HepG2 cell medium as described in Experimental Procedures, and the cells are incubated for 10 min at 37° C. with 10 μg/ml apoA-I (panels B and D), 100 nM IF1 (panel E), or both IF1 […] and apoA-I at the same concentrations as above (panel F). Control experiments are performed with neither apo AI nor IF1 added into the cell medium (panel A and C). Supernatants are recovered and analysed by HPLCs.
Confluent HepG2 in 6-well plates are washed in DMEM, then incubated at 37° C. for 10 min in DMEM pH 6.6 with 0.1 μCi [α-32P] ATP for ADP generation assay, or with 0.1 μCi 32Pi and ADP (100 nM final) for ATP generation assay. Depending on the experiment, IF1 (100 nM final) or apoA-I (10 μg/ml final) are added in the reaction mixture. Supernatants are removed and analysed using two different systems: 1) by HPLC coupled to a radioactivity detector on a Whatman Partisphere 5 SAX column (Whatman International Ltd., UK) as described previously (13); calibration is done with radiolabelled nucleotides. 2) by thin layer chromatography in the solvent NaCl 2.4%/NH4OH/H2O/MeOH (12.5/15/27.5/50, v/v); radioactive spots are counted by liquid scintillation.

T1 sequence (P06576 48-529): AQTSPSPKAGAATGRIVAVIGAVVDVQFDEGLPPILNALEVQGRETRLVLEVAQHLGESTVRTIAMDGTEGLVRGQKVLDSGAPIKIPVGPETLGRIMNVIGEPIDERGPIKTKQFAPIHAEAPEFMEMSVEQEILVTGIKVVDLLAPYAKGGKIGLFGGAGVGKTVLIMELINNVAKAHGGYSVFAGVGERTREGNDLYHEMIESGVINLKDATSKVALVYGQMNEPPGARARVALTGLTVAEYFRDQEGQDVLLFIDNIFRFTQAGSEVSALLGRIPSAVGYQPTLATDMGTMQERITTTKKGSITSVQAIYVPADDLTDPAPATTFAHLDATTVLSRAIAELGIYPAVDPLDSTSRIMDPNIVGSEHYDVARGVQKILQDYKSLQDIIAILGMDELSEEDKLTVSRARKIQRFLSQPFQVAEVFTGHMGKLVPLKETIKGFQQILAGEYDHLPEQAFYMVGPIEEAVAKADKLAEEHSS
T1 sequence (P25705 44-553 partner): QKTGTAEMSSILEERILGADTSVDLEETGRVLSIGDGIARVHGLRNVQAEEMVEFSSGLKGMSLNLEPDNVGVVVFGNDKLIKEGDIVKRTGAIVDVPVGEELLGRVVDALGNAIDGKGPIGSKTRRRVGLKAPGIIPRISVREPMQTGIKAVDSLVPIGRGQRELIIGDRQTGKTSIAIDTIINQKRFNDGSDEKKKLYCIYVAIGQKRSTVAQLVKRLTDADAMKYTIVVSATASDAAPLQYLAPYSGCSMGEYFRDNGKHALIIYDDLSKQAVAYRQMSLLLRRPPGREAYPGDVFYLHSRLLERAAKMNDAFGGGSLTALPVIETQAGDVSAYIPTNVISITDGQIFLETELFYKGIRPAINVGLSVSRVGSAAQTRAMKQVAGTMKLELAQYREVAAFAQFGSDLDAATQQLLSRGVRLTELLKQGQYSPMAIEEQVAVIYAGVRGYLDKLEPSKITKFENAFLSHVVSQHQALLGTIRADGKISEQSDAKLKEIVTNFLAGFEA
T1 sequence (P36542 26-298 partner): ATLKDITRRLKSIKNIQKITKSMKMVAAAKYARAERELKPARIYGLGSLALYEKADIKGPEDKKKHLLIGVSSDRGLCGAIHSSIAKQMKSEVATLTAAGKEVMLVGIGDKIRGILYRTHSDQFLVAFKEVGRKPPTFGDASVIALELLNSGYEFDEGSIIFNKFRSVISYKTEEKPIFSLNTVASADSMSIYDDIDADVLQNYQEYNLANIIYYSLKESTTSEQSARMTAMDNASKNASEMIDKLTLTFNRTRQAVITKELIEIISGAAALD
T1 sequence (P30049 23-168 partner): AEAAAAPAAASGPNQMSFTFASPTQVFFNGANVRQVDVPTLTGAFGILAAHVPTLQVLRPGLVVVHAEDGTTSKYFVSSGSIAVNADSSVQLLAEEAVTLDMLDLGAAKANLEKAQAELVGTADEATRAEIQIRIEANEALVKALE
T1 sequence (P56381 2-51 partner limits assumed): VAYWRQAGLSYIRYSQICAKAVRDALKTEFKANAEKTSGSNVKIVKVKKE

With CSc1nc(N)c2ncn([C@@H]3O[C@H](COP(=O)(O)OP(=O)(O)O)[C@@H](O)[C@H]3O)c2n1 [2MeS-ADP] the “effect on TG-HDL2 endocytosis” value ([1]; 2MeS-ADP at 10 to 100 nM) was “stimulatory effect” and the “effect on TG-HDL2 endocytosis” value ([1]; 2MeS-ADP at higher concentrations (1 μM to 10 μM)) was “inhibition of endocytosis”.

For Nc1ncnc2c1ncn2[C@@H]1O[C@H](COP(=O)(O)OP(=O)(O)O)[C@@H](O)[C@H]1O [ADP, reference compound], the “number of EGF-R at the cell surface” value [2] was “neither free apoA-I (FIG. 6-4L) nor ADP (FIG. 6-4M) are able to reduce”, the “stimulation of endocytosis of 125I-labeled LDL” value [3] was “no stimulation” and the “effect on internalisation of 125I-TG-HDL2” value (shortened to “effect on internalisation”) [1] was “stimulates”. For the same molecule, the “influence on cholesterol efflux” value [4] was “no influence”.

In the case of Nc1ncnc2c1ncn2[C@@H]1O[C@H](COP(=O)(O)OP(=O)(O)OP(=O)(O)O)[C@@H](O)[C@H]1O [ATP], the “effect on internalisation” value [1] is reported as “small stimulation”.

For Nc1ncnc2c1ncn2[C@@H]1O[C@H](COP(=O)(O)OP(=O)(O)OP(O)(O)=S)[C@@H](O)[C@H]1O [ATPγS], the “stimulation of TG-HDL2 endocytosis” value ([1]; ATPγS at 10 μM) was 15% and the “effect on TG-HDL2 endocytosis” value ([1]; ATPγS at low concentrations) was “weak effect”.

With “EGF: known to induce endocytosis of the EGF receptor (NSDSECPLSHDGYCLHDGVCMYIEALDKYACNCVVGYIGERCQYRDLKWWELR; Epidermal growth factor; UniProt P01133 971-1023, looked up)” the “number of EGF-R at the cell surface” value [2] was “strongly reduces” and the “effect on internalisation” value [1] was “does not stimulate”.

“IF1: natural inhibitor protein of mitochondrial F1-ATPase, inhibits the hydrolytic activity of the ATP synthase” was tested, and the “TG-HDL2 internalisation by perfused rat liver” value ([5]; 1 μM IF1, 35 μg/ml 125I-TG-HDL2, 45 minutes at 37° C., means±SEM, n=7) was 2.597 ± 1.026 μgTG-HDL2/g of liver, the “decrease of TG-HDL2 internalisation by the liver” value ([5]; perfused rat liver, 45 min, 1 μM IF1) was “up to 45%” and the “effect on stimulation of TG-HDL2 endocytosis by free-apoA-I” value ([1]; higher concentrations of IF1, with free-apoA-I 10 μg/ml, DMEM pH 6.6) was “completely abolish”. The “effect on TG-HDL2 internalisation (HDL endocytosis)” value ([1]; increasing concentrations of IF1, without free-apoA-I, DMEM pH 6.6, 10 min at 37° C.) was “dramatic decrease”, the “influence on cholesterol efflux” value [4] was “no influence” and the “decrease of [α-32P]-ADP generated as compared to control” value ([6]; 100 nM IF1, 10 min at 37° C.) was 48%. The “effect on the free-apoA-I stimulation of ATP hydrolysis” value ([6]; 100 nM IF1 plus 10 μg/ml apoA-I, 10 min at 37° C.) was “could inhibit the stimulatory effect”.

For apyrase, the “effect on internalisation” value [1] was “completely abolishes”.
